The record followed here is publication PMC10307035, “Antiviral activity of singlet oxygen-photogenerating perylene compounds against SARS-CoV-2: Interaction with the viral envelope and photodynamic virion inactivation” (Virus Research, 2023).

A short description of data set [1]: ROS generation measurement with DMA trap in DMSO. Type of data set: physicochemical. As to the method:
ROS generation was also estimated using 9,10-dimethylanthracene (DMA), another specific fluorescent singlet oxygen trap, which forms nonfluorescent 9,10-dimethylanthracene endoperoxide after ROS-mediated DMA oxidation. Compounds (0, 0.1, 1, and 10 µM) in DMSO were mixed with DMA (0.5 µM), and these solutions were irradiated for 10 min at room temperature (RT) with light-emitting diodes (LED, 465–480 nm) having approximate power density of 30 mW/cm^2 (device description in Fig. S7). DMA fluorescence intensity was measured at ex/em wavelengths of 370/432 nm in the presence or absence of α-tocopherol (3 µg/mL) as an antioxidant. Singlet oxygen generation was accompanied by a decreased fluorescence signal of the DMA probe ([Zeng et al., 2020]).

A further data set deals with CRFK cells. The experiment in a line: Cytotoxicity assay (Cell Counting Kit-8) in CRFK cells. It is filed as cell-based, Felis catus. As to conditions: up to 10 µM. As to the method:
(§1) To determine the overall cytotoxicity of the tested compounds, Vero cells were cultured for 24 h in 96-well plates to form a confluent monolayer, and then were treated with the tested compounds at concentrations of 2 and 10 µM. After 48 h of cultivation in the dark at 37 °C under 5% CO2, the cell culture medium was aspirated. The potential cytotoxicity of the tested perylene derivatives was determined based on cell viability using Cell Counting Kit-8 (Dojindo Molecular Technologies, Munich, Germany) according to the manufacturer's instructions. The cell viabilities of compound-treated Vero cells were compared with those of control DMSO-treated cells. We also used the above-described protocol to assess the cytotoxicity of the selected perylene antivirals, at concentrations ranging from 0 to 10 µM, in CaCo-2 and CRFK cells.

The subject of data set [2] is SARS-CoV-2 (Wuhan strain). As to the kind of experiment: Viral titer inhibition assay, SARS-CoV-2 in CaCo-2 cells. Type of data set: cell-based. As to conditions: 0–10 µM.
Data set [3] in a line: Fluorescence quantum yield determination. It is filed as physicochemical. Particulars: in DMSO, relative to rhodamin B. As to the method: The samples’ steady-state fluorescence characteristics were measured in L-format using a Chronos DFD Fluorescence spectrometer (ISS, USA) equipped with a 300 W Cermax xenon arc lamp (ISS, USA), a concave holographic grating monochromator, and a PMT detector. The required amount of each sample was diluted in DMSO and measured in a 1-cm quartz cuvette at a constant temperature of 25 °C. The resulting data were evaluated using Vinci software (ISS, USA) and correlated to the utilized optical configuration.
Absorption spectra were measured using a high-performance Specord S 600 diode spectrophotometer (Jena Analyst, DE). The required amount of each sample was diluted in DMSO, added to 1-cm quartz cuvette, and measured within the selected absorbance spectrum range, against pure DMSO as a blank, at a constant temperature of 25 °C. The results were evaluated using WinASPECT® software (Jena Analyst, DE).
Fluorescence quantum yield was determined following a previously described protocol ([Kozma et al., 2005]; [Magde et al., 1999]; [Williams et al., 1983]). The kinetics of the incorporation of compounds into liposome membrane models was determined using steady-state fluorescence spectroscopy at a constant excitation and emission wavelength, according to the corresponding sample excitation and emission maxima. We added 50 μL of LNP suspension to 0.1 mM of the analyte in PBS, and monitored the increase of fluorescence intensity over the time range from 0 to 1400s. The preparation and characterization of the liposomal suspension is described in the supporting information (Fig. S4).
1. Supplementary material and methods
1.1. Fluorescence quantum yield (QY) determination
The steady-state fluorescence and absorption data were used for quantum yield determination. QY was determined relative to a reference compound, rhodamin B. Absorbance in the range of 0.01–0.1 was used to calculate the QY. We plotted two calibration curves of integrated emission fluorescence intensity as a function of sample absorbance. […]

In data set [4] the test system is CaCo-2 cells. The experiment in a line: Cellular stress marker expression by RT-qPCR in CaCo-2 cells. It is filed as cell-based, human. As to the method: RT-qPCR was performed to evaluate changes in the gene expression of cellular stress markers. […] Previous publications report the primer sequences and numbers of the Universal Probe Library (UPL; Roche Life Sciences, Germany) used for detection of ATF3, CDKN1A (p21), CYP1A1, DDIT3, HMOX1, HSPA1B (HSP70), and HSPA5 mRNAs ([Procházková et al., 2018]; [Šimečková et al., 2020]). […] TaqMan™ Gene Expression Assays (Thermo Fisher Scientific, Waltham, MA, USA) were used to determine the levels of FGF21 (Hs00173927_m1), GADD45A (Hs00169255_m1), GDF15 (Hs00171132_m1), and SRXN1 (Hs00607800_m1). The amplification was run in a 10-µL reaction mixture containing 1 µL of sample, using Kapa Probe Fast One-Step (Kapa Biosystems Pty, Cape Town, South Africa) on a LightCycler® 480 System (Roche Diagnostics, Czech Republic) using the previously published sequence ([Procházková et al., 2018]). Reference gene qPCR assays (Generi Biotech, Hradec Králové, Czech Republic) were used for the following housekeeping genes: human β2-Microglobulin (B2M; #3030), hydroxymethylbilane synthase (HMBS; #3032), and RNA polymerase II subunit A (POLR2A; #3035). We used an average of three reference gene Cp values to calculate the change in gene expression using the comparative threshold cycle method ([Schmittgen and Livak, 2008]).

The subject of data set [5] is CaCo-2 cells. The experiment in a line: Cytotoxicity assay (Cell Counting Kit-8) in CaCo-2 cells. Type of data set: cell-based, human. As to conditions: up to 10 µM. As to the method:
as §1

For the compound `CC(C)(C)C(=O)OCn1c(=O)c(C#Cc2ccc3c4cccc5cccc(c6cccc2c63)c54)cn(CC(=O)N(CCO)CCO)c1=O` [Compound 13], the “ROS generation, DMA trap, under blue light” value in data set [1] (465–480 nm, 30 mW/cm^2, 10 min) is “significant bleaching”. For the same compound, in data set [1] (10 min, dark or α-tocopherol (3 µg/mL)), the “ROS generation, DMA trap, in the dark or with α-tocopherol” value is “no/limited bleaching”. In addition, the “tolerability by CRFK cells” value in the data set with CRFK cells is on record as “well-tolerated”. Besides, the “anti-SARS-CoV-2 activity in CaCo-2 cells” value in data set [2] is recorded as “sub-micromolar”. The fluorescence quantum yield in data set [3] came to 90%. Besides, in the data set on CaCo-2 cells [4] (CaCo-2 cells, 10 µM, all tested incubation periods), the CYP1A1 expression result is “significantly decreased”. In the data set with CaCo-2 cells [4] (CaCo-2 cells, 5, 24 and 48 h), the “expression of HMOX1, SRXN1, TXNRD1 (oxidative stress)” value was “did not increase”; the “expression of HSPA5, DDIT3, HSPA1B (HSP70), CDKN1A (p21), GADD45A” value is recorded as “no changes”; the “expression of early toxicity markers (ATF3, FGF21, GDF15)” value is recorded as “did not induce”. In addition, in the data set on CaCo-2 cells [5], the “tolerability by CaCo-2 cells” value is listed as “well-tolerated”.
